The values below are quoted from earlier work in patent US20180267043A1, “USE OF BIOMARKERS FOR PREDICTING CLINICAL SENSITIVITY TO CANCER TREATMENT” (CELGENE CORPORATION, priority 2014, published 2018).

Data set [1] deals with T1, CRBN (Homo sapiens, UniProt Q96SW2). Conditions: in vitro; cited from earlier work.
Target sequence in this assay (Q96SW2 whole entry): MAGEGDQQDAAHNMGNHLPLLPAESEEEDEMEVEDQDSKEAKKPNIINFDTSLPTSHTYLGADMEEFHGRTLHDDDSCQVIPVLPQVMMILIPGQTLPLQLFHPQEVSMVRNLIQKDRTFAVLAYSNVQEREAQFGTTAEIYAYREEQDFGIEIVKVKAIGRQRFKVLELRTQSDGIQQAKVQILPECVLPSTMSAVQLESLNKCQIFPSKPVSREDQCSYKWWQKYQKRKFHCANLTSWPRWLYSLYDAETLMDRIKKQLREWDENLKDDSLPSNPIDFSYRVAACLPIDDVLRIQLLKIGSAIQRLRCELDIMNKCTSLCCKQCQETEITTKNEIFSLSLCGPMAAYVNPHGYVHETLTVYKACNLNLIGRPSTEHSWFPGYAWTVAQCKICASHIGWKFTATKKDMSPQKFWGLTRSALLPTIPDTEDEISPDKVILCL
Target sequence in this assay (Q16531 whole entry partner): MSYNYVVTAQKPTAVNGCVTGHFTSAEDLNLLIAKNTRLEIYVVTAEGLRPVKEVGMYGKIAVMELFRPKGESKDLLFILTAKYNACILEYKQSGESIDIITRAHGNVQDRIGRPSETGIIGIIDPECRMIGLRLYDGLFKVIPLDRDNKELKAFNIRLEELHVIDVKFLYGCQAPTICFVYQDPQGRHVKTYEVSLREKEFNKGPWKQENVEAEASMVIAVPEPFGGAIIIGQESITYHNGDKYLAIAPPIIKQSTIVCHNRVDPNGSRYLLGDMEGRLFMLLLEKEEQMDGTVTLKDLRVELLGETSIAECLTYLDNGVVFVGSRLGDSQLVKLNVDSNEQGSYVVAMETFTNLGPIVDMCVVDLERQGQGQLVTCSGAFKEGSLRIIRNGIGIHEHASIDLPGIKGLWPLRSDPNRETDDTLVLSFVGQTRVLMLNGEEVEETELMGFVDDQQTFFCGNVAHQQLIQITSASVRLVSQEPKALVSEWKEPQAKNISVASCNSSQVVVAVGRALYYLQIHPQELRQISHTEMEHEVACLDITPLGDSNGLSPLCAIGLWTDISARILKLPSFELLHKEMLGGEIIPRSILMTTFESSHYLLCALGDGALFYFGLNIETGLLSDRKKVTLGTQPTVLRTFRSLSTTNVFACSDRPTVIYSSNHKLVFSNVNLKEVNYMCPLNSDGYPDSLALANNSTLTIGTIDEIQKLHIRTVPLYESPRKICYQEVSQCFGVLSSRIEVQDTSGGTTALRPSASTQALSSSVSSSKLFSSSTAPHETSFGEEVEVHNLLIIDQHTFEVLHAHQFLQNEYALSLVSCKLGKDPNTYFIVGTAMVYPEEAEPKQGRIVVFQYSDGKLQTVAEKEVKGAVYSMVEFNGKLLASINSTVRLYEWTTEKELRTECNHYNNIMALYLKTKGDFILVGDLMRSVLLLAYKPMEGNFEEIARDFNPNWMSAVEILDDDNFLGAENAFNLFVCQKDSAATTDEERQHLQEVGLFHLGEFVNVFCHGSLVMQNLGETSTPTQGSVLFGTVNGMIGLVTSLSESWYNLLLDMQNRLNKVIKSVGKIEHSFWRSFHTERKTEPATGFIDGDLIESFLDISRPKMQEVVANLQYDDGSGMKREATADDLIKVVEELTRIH
Target sequence in this assay (Q13619 whole entry partner): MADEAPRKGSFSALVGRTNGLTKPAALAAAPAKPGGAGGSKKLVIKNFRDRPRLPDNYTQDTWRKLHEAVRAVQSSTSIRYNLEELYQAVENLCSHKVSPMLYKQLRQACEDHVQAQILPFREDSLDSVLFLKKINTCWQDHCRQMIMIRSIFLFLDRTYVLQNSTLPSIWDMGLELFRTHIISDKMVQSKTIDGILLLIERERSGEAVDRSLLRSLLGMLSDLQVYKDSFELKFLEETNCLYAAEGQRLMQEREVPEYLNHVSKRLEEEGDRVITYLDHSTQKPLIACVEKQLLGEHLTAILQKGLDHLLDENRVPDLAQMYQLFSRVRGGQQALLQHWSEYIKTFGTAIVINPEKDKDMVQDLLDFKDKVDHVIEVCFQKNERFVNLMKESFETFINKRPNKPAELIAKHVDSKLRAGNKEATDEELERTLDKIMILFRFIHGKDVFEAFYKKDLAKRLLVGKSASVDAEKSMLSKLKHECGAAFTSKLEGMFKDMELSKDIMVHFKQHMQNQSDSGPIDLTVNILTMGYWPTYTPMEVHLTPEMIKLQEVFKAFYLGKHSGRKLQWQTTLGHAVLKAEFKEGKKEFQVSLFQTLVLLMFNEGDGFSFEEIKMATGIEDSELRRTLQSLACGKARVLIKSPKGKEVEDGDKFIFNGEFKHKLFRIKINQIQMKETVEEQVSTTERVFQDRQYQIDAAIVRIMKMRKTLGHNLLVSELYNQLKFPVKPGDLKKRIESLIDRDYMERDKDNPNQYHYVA
Target sequence in this assay (P62877 whole entry partner): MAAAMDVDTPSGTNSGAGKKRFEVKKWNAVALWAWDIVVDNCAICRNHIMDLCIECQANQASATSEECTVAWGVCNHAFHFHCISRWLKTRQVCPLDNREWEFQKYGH
For data set [2], the target named is T1, CRBN. To be noted: Ito et al., Science 2010; cited from earlier work.
Target sequence in this assay (Q96SW2 whole entry): as the sequence (Q96SW2 whole entry) above
Data set [3] concerns the target CRBN (Homo sapiens, UniProt Q96SW2, W386A/Y384A). Conditions: double mutant; cited from earlier work.
For data set [4], the system named is CRBN. To be noted: individual point mutants; cited from earlier work.

SMILES strings stand for the structures.

Sequence of CRBN (Homo sapiens, UniProt Q96SW2, W386A/Y384A) (Q96SW2 whole entry Y384A/W386A): as the sequence (Q96SW2 whole entry) above, with Y384A, W386A counted along it

Take `O=C1CCC(N2C(=O)c3ccccc3C2=O)C(=O)N1` (stereo not shown) [thalidomide]: at CRBN [1], the “Auto-ubiquitination of CRBN” value is given as “inhibit auto-ubiquitination of CRBN in vitro”. The “Binding to CRBN” value at CRBN [2] was “binds to thalidomide”. On CRBN [3], the “Binding to CRBN double mutant (Y384A, W386A)” value was “lowest thalidomide-binding activity”. Besides, the “Binding to CRBN point mutants Y384A and W386A” value in the data set on CRBN [4] is “both defective for thalidomide binding”.
